In ChEMBL document CHEMBL5532675, “Discovery of 4-Ethoxy-6-chloro-5-azaindazoles as Novel PDE4 Inhibitors for the Treatment of Alcohol Use Disorder and Alcoholic Liver Diseases” (J Med Chem, 2024):
The source made the active and inactive calls. No cut-off for these calls is given here.

Tested on: Mus musculus
Test: Protection against alcohol-induced motor impairment in C57BL/6J mouse model assessed as short recovery time by measuring latency to falling off at 2.5 mg/kg, po preadministered with compound every 24 hrs for 3 times followed by alcohol administration 30 mins post last dose and further treated with compound for 3 days followed by alcohol administration 30 mins post last dose and measured at 2 to 20 mins by rotarod test
Assay type: functional, organism-based
Details: time 8702-8720 min

For `CCOc1nc(Cl)cc2c1cnn2CCCC(=O)O`, the Activity was “Active”.
